Reference: article PMC11063903, “Engineering a human P2X2 receptor with altered ligand selectivity in yeast” (The Journal of Biological Chemistry, 2024)

Key:
[1] = system: P2X2 all variants at V60, including the V60L mutation; assay: Site-saturation screen, fast kinetic assay in yeast, V60 variants; type: cell-based, human; conditions: 500 μM ATP f.c., ΔF/ΔT normalized to WT
Experimental: (§1) Figure 2 P2X2 SNP testing.A, homology model of P2X2 with the clinically implicated SNPs highlighted. V60 is highlighted in magenta and G353 is highlighted in dark blue. Lines indicate the positions of the mutations on each of the three monomers. B, zoomed view of the transmembrane region from the purple box in (A). V60 is magenta and G353 is dark blue. The structure is rotated 60° on the right image. C, screening data from site-saturation of the V60 residue in saturating ATP concentration (500 μM f.c.) using the fast kinetic assay. Signal onset values (ΔF/ΔT) are normalized to values from the WT receptor. […] Each of 2 to 3 replicates is represented as a single point. […]
(§2) GCaMP assays were performed as follows. […] Cells were loaded onto a black, clear bottom microplate and imaged on a FlexStation3 plate reader. […] Fluorescence was measured with an excitation at 485 nm, and emission 525 nm. […] For strains with mScarlet, fluorescence was read with excitation 570 nm/emission 610 nm. Slopes were calculated from the last 6 points of measurement and were normalized to the positive control samples. Any replicate in which the mScarlet value was measured to be over 2 standard deviations less than the mean for that set was discarded from further analysis.

[2] = biological target: T1, P2X2 G353 serine substitution (G353S) (Homo sapiens, UniProt Q9UBL9, G353S); assay: Site-saturation screen, fast kinetic assay in yeast, G353 serine; type: cell-based; conditions: 500 μM ATP, ΔF/ΔT normalized to WT
T1 construct: expressed in transfected cells; host or cells: S. cerevisiae BY4741 background
Experimental: as §1, §2

[3] = biological target: T2, P2X2 G353 threonine substitution (G353T) (Homo sapiens, UniProt Q9UBL9, G353T); assay: Site-saturation screen, fast kinetic assay in yeast, G353 threonine; type: cell-based; conditions: 500 μM ATP, ΔF/ΔT normalized to WT
T2 construct: expressed in transfected cells; host or cells: S. cerevisiae BY4741 background
Experimental: as §1, §2

P2X2 G298 substitutions = assay: Site-saturation screen of ligand-binding domain with ATP, G298 substitutions; type: cell-based, human; conditions: 500 μM ATP
Source text: (§3) The yeast P2X2 screening platform poses an opportunity to probe the structure-function of the ligand-binding domain in detail. The conserved P2X “NFR” motif at residues 300 to 302 is directly involved in bonding to the ATP triphosphate moiety ([41]), so we mutagenized residues at or near this motif (298–304), ultimately covering 133 variants (7 sites, 19 residues each). […] We compared our results to phylogenetic data based on a multiple sequence alignment (MSA) from a curated set of 419 related P2X homologs (Figs. 3B, and S5; Table S1).
(§4) Figure 3 Structure-function analysis of the ligand binding domain.A, heat map summarizing the screening data of ATP with seven site-saturation libraries surrounding the NFR-motif. B, sequence-logo plot of the mutagenized residues and percent identity scores as determined from MSA. C, homology model of P2X2 colored by sequence conservation as calculated from a multiple sequence alignment of 419 related P2X genes. Conservation is scored on a log scale where maroon is more conserved and blue is less conserved. D, ATP in the ligand-binding pocket of P2X2. […]
(§5) GCaMP assays were performed as follows. […] Cells were loaded onto a black, clear bottom microplate and imaged on a FlexStation3 plate reader. […] Fluorescence was measured with an excitation at 485 nm, and emission 525 nm. […] For strains with mScarlet, fluorescence was read with excitation 570 nm/emission 610 nm. […]

P2X2 F301 mutants = assay: Site-saturation screen of ligand-binding domain with ATP, F301 mutants; type: cell-based, human; conditions: 500 μM ATP
Source text: as §3, §4, §5

P2X2 R302 lysine (R302K) = biological target: T3, P2X2 R302 lysine (R302K) (Homo sapiens, UniProt Q9UBL9, R302K); assay: Site-saturation screen of ligand-binding domain with ATP, R302 lysine; type: cell-based; conditions: 500 μM ATP, ± sd
T3 construct: expressed in transfected cells; host or cells: S. cerevisiae BY4741 background
Source text: as §3, §4, §5

P2X2 F303L = biological target: T4, P2X2 F303L (Homo sapiens, UniProt Q9UBL9, F303L); assay: Site-saturation screen of ligand-binding domain with ATP, F303L; type: cell-based; conditions: 500 μM ATP, ± sd
T4 construct: expressed in transfected cells; host or cells: Saccharomyces cerevisiae BY4741 derivative, genome-integrated, galactose-inducible
Source text: as §3, §4, §5

P2X2 F303M = biological target: T5, P2X2 F303M (Homo sapiens, UniProt Q9UBL9, F303M); assay: Site-saturation screen of ligand-binding domain with ATP, F303M; type: cell-based; conditions: 500 μM ATP, ± sd
T5 construct: expressed in transfected cells; host or cells: Saccharomyces cerevisiae BY4741 derivative, genome-integrated, galactose-inducible
Source text: as §3, §4, §5

P2X2 A304H = biological target: T6, P2X2 A304H (Homo sapiens, UniProt Q9UBL9, A304H); assay: Site-saturation screen of ligand-binding domain with ATP, A304H; type: cell-based; conditions: 500 μM ATP, ± sd
T6 construct: expressed in transfected cells; host or cells: Saccharomyces cerevisiae BY4741 derivative, genome-integrated, galactose-inducible
Source text: as §3, §4, §5

P2X2 A304V = biological target: T7, P2X2 A304V (Homo sapiens, UniProt Q9UBL9, A304V); assay: Site-saturation screen of ligand-binding domain with ATP, A304V; type: cell-based; conditions: 500 μM ATP, ± sd
T7 construct: expressed in transfected cells; host or cells: Saccharomyces cerevisiae BY4741 derivative, genome-integrated, galactose-inducible
Source text: as §3, §4, §5

P2X2 A304Y = biological target: T8, P2X2 A304Y (Homo sapiens, UniProt Q9UBL9, A304Y); assay: Site-saturation screen of ligand-binding domain with ATP, A304Y; type: cell-based; conditions: 500 μM ATP, ± sd
T8 construct: expressed in transfected cells; host or cells: Saccharomyces cerevisiae BY4741 derivative, genome-integrated, galactose-inducible
Source text: as §3, §4, §5

T8 sequence (Q9UBL9 whole entry A304Y, the tested form may be a part): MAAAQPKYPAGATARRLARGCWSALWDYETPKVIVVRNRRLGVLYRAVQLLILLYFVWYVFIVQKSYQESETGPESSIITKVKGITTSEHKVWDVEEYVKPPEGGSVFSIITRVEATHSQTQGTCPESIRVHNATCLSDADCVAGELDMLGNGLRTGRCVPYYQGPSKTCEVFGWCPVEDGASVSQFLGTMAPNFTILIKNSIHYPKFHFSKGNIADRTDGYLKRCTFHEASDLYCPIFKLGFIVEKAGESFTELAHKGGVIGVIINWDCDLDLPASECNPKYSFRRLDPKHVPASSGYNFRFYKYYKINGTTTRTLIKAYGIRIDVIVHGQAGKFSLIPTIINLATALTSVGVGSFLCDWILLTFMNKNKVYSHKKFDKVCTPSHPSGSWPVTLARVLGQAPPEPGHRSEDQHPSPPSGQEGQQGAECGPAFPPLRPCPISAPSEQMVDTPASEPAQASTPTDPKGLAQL
T4 sequence (Q9UBL9 whole entry F303L, the tested form may be a part): as the sequence (Q9UBL9 whole entry A304Y, the tested form may be a part) above, with F303L, Y304A counted along it
T3 sequence (Q9UBL9 whole entry R302K, the tested form may be a part): as the sequence (Q9UBL9 whole entry A304Y, the tested form may be a part) above, with R302K, Y304A counted along it
T7 sequence (Q9UBL9 whole entry A304V, the tested form may be a part): as the sequence (Q9UBL9 whole entry A304Y, the tested form may be a part) above, with Y304V counted along it
T1 sequence (Q9UBL9 whole entry G353S): as the sequence (Q9UBL9 whole entry A304Y, the tested form may be a part) above, with Y304A, G353S counted along it
T5 sequence (Q9UBL9 whole entry F303M, the tested form may be a part): as the sequence (Q9UBL9 whole entry A304Y, the tested form may be a part) above, with F303M, Y304A counted along it
T6 sequence (Q9UBL9 whole entry A304H, the tested form may be a part): as the sequence (Q9UBL9 whole entry A304Y, the tested form may be a part) above, with Y304H counted along it
T2 sequence (Q9UBL9 whole entry G353T): as the sequence (Q9UBL9 whole entry A304Y, the tested form may be a part) above, with Y304A, G353T counted along it

**Q.** Nc1ncnc2c1ncn2[C@@H]1O[C@H](COP(=O)(O)OP(=O)(O)OP(=O)(O)O)[C@@H](O)[C@H]1O [ATP] was tested. Which “response to ATP” value [1] did it give?
**A.** Its value is “unresponsive”.

**Q.** What about the “signaling, % of WT activity” value [2] of the same compound?
**A.** Its value is 95%.

**Q.** And the “signaling, % of WT activity” value [3]?
**A.** Its value is 50%.

**Q.** And the “ligand gating activity compared to the negative control” value (P2X2 G298 substitutions)?
**A.** Its value is “none of the G298 substitutions exhibiting ligand gating activity”.

**Q.** And the signaling (P2X2 F301 mutants)?
**A.** Its signaling is “None of the F301 mutants showed significant signaling”.

**Q.** What about the “signal, % of WT signaling” value (P2X2 R302 lysine (R302K)) of the same compound?
**A.** Its value is 43 ± 15%.

**Q.** What about the “signal, % of WT signaling” value (P2X2 F303L) of the same compound?
**A.** The value was 108 ± 89%.

**Q.** What about the “signal, % of WT signaling” value (P2X2 F303M) of the same compound?
**A.** Its value is 71 ± 14%.

**Q.** And the “signal, % of WT signaling” value (P2X2 A304H)?
**A.** Its value is 27 ± 18%.

**Q.** And the “signal, % of WT signaling” value (P2X2 A304V)?
**A.** Its value is 32 ± 2.1%.

**Q.** And the “signal, % of WT signaling” value (P2X2 A304Y)?
**A.** The value was 52 ± 10%.
